Source: ChEMBL document CHEMBL5233246, “CT1-3, a novel magnolol-sulforaphane hybrid suppresses tumorigenesis through inducing mitochondria-mediated apoptosis and inhibiting epithelial mesenchymal transition” (Eur J Med Chem, 2020)
Activity calls are given as the source filed them.

What was measured:
[1] = tested on: A549; assay: Induction of apoptosis in human A549 cells assessed as late apoptotic cells at 10 uM incubated for 24 hrs by annexin V-FITC/propidium iodide staining based flow cytometry analysis (reference value: 0.8%); format: functional
[2] = tested on: A549; assay: Induction of apoptosis in human A549 cells assessed as necrotic cells at 10 uM incubated for 24 hrs by annexin V-FITC/propidium iodide staining based flow cytometry analysis (reference value: 0.4%); format: functional
[3] = tested on: NCI-H460; assay: Induction of apoptosis in human NCI-H460 cells assessed as viable cells at 10 uM incubated for 24 hrs by annexin V-FITC/propidium iodide staining based flow cytometry analysis (reference value: 97.9%); format: functional; conditions: read-out: Activity
[4] = tested on: NCI-H460; assay: Induction of apoptosis in human NCI-H460 cells assessed as early apoptotic cells at 10 uM incubated for 24 hrs by annexin V-FITC/propidium iodide staining based flow cytometry analysis (reference value: 0.8%); format: functional
[5] = tested on: NCI-H460; assay: Induction of apoptosis in human NCI-H460 cells assessed as late apoptotic cells at 10 uM incubated for 24 hrs by annexin V-FITC/propidium iodide staining based flow cytometry analysis (reference value: 0.4%); format: functional
[6] = tested on: NCI-H460; assay: Induction of apoptosis in human NCI-H460 cells assessed as necrotic cells at 10 uM incubated for 24 hrs by annexin V-FITC/propidium iodide staining based flow cytometry analysis (reference value: 0.9%); format: functional
[7] = tested on: LoVo; assay: Induction of apoptosis in human LoVo cells assessed as viable cells at 10 uM incubated for 24 hrs by annexin V-FITC/propidium iodide staining based flow cytometry analysis (reference value: 98%); format: functional; conditions: read-out: Activity
[8] = tested on: LoVo; assay: Induction of apoptosis in human LoVo cells assessed as early apoptotic cells at 10 uM incubated for 24 hrs by annexin V-FITC/propidium iodide staining based flow cytometry analysis (reference value: 1.3%); format: functional
[9] = tested on: LoVo; assay: Induction of apoptosis in human LoVo cells assessed as late apoptotic cells at 10 uM incubated for 24 hrs by annexin V-FITC/propidium iodide staining based flow cytometry analysis (reference value: 0.4%); format: functional
[10] = tested on: LoVo; assay: Induction of apoptosis in human LoVo cells assessed as necrotic cells at 10 uM incubated for 24 hrs by annexin V-FITC/propidium iodide staining based flow cytometry analysis (reference value: 0.3%); format: functional
[11] = tested on: A549; assay: Induction of apoptosis in human A549 cells assessed as increase in ROS level at 10 uM incubated for 8 hrs by H2DCFDA staining based fluorescence microscopic assay; format: functional, cell-based
[12] = tested on: NCI-H460; assay: Induction of apoptosis in human NCI-H460 cells assessed as increase in ROS level at 10 uM incubated for 8 hrs by H2DCFDA staining based fluorescence microscopic assay; format: functional, cell-based
[13] = tested on: LoVo; assay: Induction of apoptosis in human LoVo cells assessed as increase in ROS level at 10 uM incubated for 8 hrs by H2DCFDA staining based fluorescence microscopic assay; format: functional, cell-based
[14] = tested on: A549; assay: Induction of apoptosis in human A549 cells assessed as reduction of mitochondrial membrane potential at 10 uM incubated for 8 hrs by JC-1 staining based fluorescence microscopic assay; format: functional, cell-based
[15] = tested on: NCI-H460; assay: Induction of apoptosis in human NCI-H460 cells assessed as reduction of mitochondrial membrane potential at 10 uM incubated for 8 hrs by JC-1 staining based fluorescence microscopic assay; format: functional, cell-based
[16] = tested on: LoVo; assay: Induction of apoptosis in human LoVo cells assessed as reduction of mitochondrial membrane potential at 10 uM incubated for 8 hrs by JC-1 staining based fluorescence microscopic assay; format: functional, cell-based
[17] = tested on: NCI-H460; assay: Induction of apoptosis in human NCI-H460 cells assessed as decrease in Bcl-2 protein expression level at 7.5 uM incubated for 24 hrs by western blot assay; format: functional, cell-based
[18] = tested on: LoVo; assay: Induction of apoptosis in human LoVo cells assessed as decrease in Bcl-2 protein expression level at 7.5 uM incubated for 24 hrs by western blot assay; format: functional, cell-based
[19] = tested on: NCI-H460; assay: Induction of apoptosis in human NCI-H460 cells assessed as decrease in XIAP protein expression level at 7.5 uM incubated for 24 hrs by western blot assay; format: functional, cell-based
[20] = tested on: LoVo; assay: Induction of apoptosis in human LoVo cells assessed as decrease in XIAP protein expression level at 7.5 uM incubated for 24 hrs by western blot assay; format: functional, cell-based
[21] = tested on: NCI-H460; assay: Induction of apoptosis in human NCI-H460 cells assessed as increase in Bax protein expression level at 7.5 uM incubated for 24 hrs by western blot assay; format: functional, cell-based
[22] = tested on: LoVo; assay: Induction of apoptosis in human LoVo cells assessed as increase in Bax protein expression level at 7.5 uM incubated for 24 hrs by western blot assay; format: functional, cell-based
[23] = tested on: NCI-H460; assay: Induction of apoptosis in human NCI-H460 cells assessed as increase in JNK phosphorylation level at 7.5 uM incubated for 24 hrs by western blot assay; format: functional, cell-based
[24] = tested on: LoVo; assay: Induction of apoptosis in human LoVo cells assessed as increase in JNK phosphorylation at 7.5 uM incubated for 24 hrs by western blot assay; format: functional, cell-based
[25] = tested on: A549; assay: Inhibition of cell migration in human A549 cells at 7.5 uM incubated for 24 hrs by crystal violet staining based transwell assay; format: functional
[26] = tested on: NCI-H460; assay: Inhibition of cell migration in human NCI-H460 cells at 7.5 uM incubated for 24 hrs by crystal violet staining based transwell assay; format: functional
[27] = tested on: LoVo; assay: Inhibition of cell migration in human LoVo cells at 7.5 uM incubated for 24 hrs by crystal violet staining based transwell assay; format: functional
[28] = tested on: A549; assay: Inhibition of cell invasion in human A549 cells at 7.5 uM incubated for 24 hrs by matrigel based transwell assay; format: functional
[29] = tested on: NCI-H460; assay: Inhibition of cell invasion in human NCI-H460 cells at 7.5 uM incubated for 24 hrs by matrigel based transwell assay; format: functional
[30] = tested on: LoVo; assay: Inhibition of cell invasion in human LoVo cells at 7.5 uM incubated for 24 hrs by matrigel based transwell assay; format: functional
[31] = tested on: NCI-H460; assay: Inhibition of cell migration in human NCI-H460 cells assessed as upregulation of E-cadherin protein expression at 7.5 uM incubated for 24 hrs by western blot analysis; format: functional, cell-based
[32] = tested on: LoVo; assay: Inhibition of cell migration in human LoVo cells assessed as upregulation of E-cadherin protein expression at 7.5 uM incubated for 24 hrs by western blot analysis; format: functional, cell-based
[33] = tested on: NCI-H460; assay: Inhibition of cell migration in human NCI-H460 cells assessed as downregulation of Snail protein expression at 7.5 uM incubated for 24 hrs by western blot analysis; format: functional, cell-based
[34] = tested on: LoVo; assay: Inhibition of cell migration in human LoVo cells assessed as downregulation of Snail protein expression at 7.5 uM incubated for 24 hrs by western blot analysis; format: functional, cell-based

C=CCc1ccc(O)c(-c2cc(CC=C)ccc2OCC[S+]([O-])CCCCN=C=S)c1 (centres undefined)
3.6%: Activity [6]
10.3%: Activity [2]
22%: viability at 10 µM [7]
72.9%: Activity [5]
23.3%: Activity [9]
8.2%: Activity [4]
16.7%: Activity [8]
15.3%: viability at 10 µM [3]
25.7%: Activity [1]
38%: Activity [10]
active: Activity [11] | Activity [12] | Activity [13] | Activity [14] | Activity [15] | Activity [16] | Activity [17] | Activity [18] | Activity [19] | Activity [20] | Activity [21] | Activity [22] | Activity [23] | Activity [24] | inhibition [25] | inhibition [26] | inhibition [27] | inhibition [28] | inhibition [29] | inhibition [30] | inhibition [31] | inhibition [32] | inhibition [33] | inhibition [34]
